Assay results taken from patent publication US20050009154A1, “Biocatalytic preparation of 1-cyano-cyclohexaneacetic acid” (Pfizer Inc, priority 2003, published 2005).
≈ marks a conversion by molar mass, not a printed value.

Experiment: aqueous solubility of the starting material
Format: physicochemical
Settings: aqueous buffer; 25° C., 20 mM phosphate buffer, pH 7; read-out: water solubility (aqueous solubility limit)
Method: The enzyme-catalyzed conversion of II to I can be carried out by contacting II with the enzyme catalyst in an aqueous reaction mixture. Compound II, the starting material, which is only moderately water soluble, (ca. 10 mM, 25° C., 20 mM phosphate buffer, pH 7), can be added to an aqueous reaction containing the enzyme catalyst at levels exceeding its aqueous solubility limit. Thus reaction mixtures initially consist of two phases, an aqueous phase containing dissolved II and the enzyme catalyst, and a solid phase containing undissolved II. At complete conversion of II, a single phase containing compound I and the enzyme catalyst remains. The enzyme catalyzed conversion of II to I can be carried out with levels of compound II from about 0.1 g/L to 148 g/L, with a preferred range of about 0.1 g/L to 90 g/L. The enzyme catalyst concentrations used in the present invention depend on the specific activity of the enzyme catalyst and is chosen to obtain the desired rate of reaction.

N#CCC1(C#N)CCCCC1 [Compound II, 1-cyanocyclohexaneacetonitrile]
solubility: ~10 mM (≈ 1480 µg/mL)
